# Experimental data: PMC10713593, “Staphylococcus aureus functional amyloids catalyze degradation of β-lactam antibiotics” (Nature Communications, 2023)
# Where no end group is shown, it is not given here.
# Key:
# [1] = Nitrocefin hydrolysis kinetics (absorbance of degraded nitrocefin at 480 nm; initial rates V0, Michaelis-Menten fit); assay type: biochemical; settings: peptide 170 µM; for nitrocefin substrate degradation after two hours: initial nitrocefin 107 µM (Fig. 4b)
# Protocol: Nitrocefin, a β-lactam widely used as a surrogate substrate of Penicillin in β-lactamase activity assay, was used as a substrate. NC degradation was monitored for 2 h. Nitrocefin stock solution was dissolved in acetonitrile (20 mM) and then diluted with Hepes buffer (50 mM, pH 7.4) to nitrocefin concentration of 360 µM (further dilutions to lower concentrations were made with the 360 µM NC stock). All nitrocefin samples were kept on ice in cold conditions and any further dilution or mixing was performed in ice-cold conditions to avoid self-hydrolysis background reaction. […] Immediately after mixing the samples, the plate was transferred to 20̊ °C pre-cooled plate reader (Multiskan GO, Thermo Scientific, Waltham, MA) and shaken slowly for 10 s. Then, the absorbance of degraded nitrocefin was measured for 2 h at interval of 20 s at λ = 480 nm. Initial production rates (V0) were calculated by slope of the initial linear range of degraded-nitrocefin production at the first 15 min. The reported results are and average of at least five separate measurements (the exact number of repeats, N, is reported next to the values). Each experiment also included blank samples of nitrocefin substrate diluted with buffer instead of PSMα. […] The initial rate calculations were performed while also subtracting the self-degradation of the substrate, to ensure that this product absorbance is a result of PSMα presence.
# The initial rates of degraded-nitrocefin production were calculated from the slopes of the first 15 min of measurement as reported above. The initial rates (V0) were fitted using non-linear regression applied with the solver function in excel, either to Michalis–Menten equation V=Vmax.[S]/(KM+S) Where Vmax. Stands for maximal reaction rate, KM stands for Michalis–Menten constant, [S] stands for the substrate molar concentration. Each initial rate value was presented as average ± SEM. The kinetic parameters were calculated by fitting the data to MM model using non-linear regression, and the confidence intervals for each parameter were calculated accordingly.
# PSMα3 fibrils = PSMα3 fibrils (Staphylococcus aureus, UniProt A9JX07); assay: LC-MS degradation of amoxicillin and penicillin G with PSMα3 fibrils or buffer; assay type: biochemical; settings: for Degraded Penicillin G (PSMa3) (percentage of LC peaks, hydrolyzed product) / Penicillin G (PSMa3) (percentage of LC peaks, parent compound) / Degraded Penicillin G (percentage of LC peaks, hydrolyzed product) / Penicillin G (percentage of LC peaks, parent compound): Hepes 50 mM pH 7.4, penicillin G 40 µM, LC-MS; for Degraded Penicillin G (percentage of LC peaks, hydrolyzed product) / Penicillin G (percentage of LC peaks, parent compound): buffer control
# Chain of PSMα3 fibrils (A9JX07 whole entry, looked up): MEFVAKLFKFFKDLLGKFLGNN
# Protocol: Amoxicillin or Penicillin solutions were dissolved in Hepes buffer (50 mM, pH 7.4) in concentration of 50 µM. PSMα3 solution in concentration of 1.54 mM was dissolved in DIW and Hepes buffer was added to the final concentration of 50 mM. The antibiotics’ solutions and preincubated PSMα3 solutions were mixed to final PSMα3 […] 180 µL organic solvent to stop the reaction (acetonitrile for Amoxicillin, methanol in the case of Penicillin). The samples were collected and injected sequentially into the LC-MS analysis.
# Waters ACQUITY UPLC I-Class PLUS System coupled with high-resolution Thermo Orbitrap Exploris 240 mass-spectrometer were used for analysis of Amoxicillin and Penicillin-G over time. 1 µL of each sample was injected into the reverse-phase Acquity UPLC BEH C18 1.7 µm, 2.1 × 50 mm column (Waters) and run under a gradient program (Table S2 for Amoxicillin, Table S3 for Penicillin-G). The samples were ionized using soft electrospray ionization in positive mode and detected in a full scan mode in range from 60 to 900 m/z with a resolution of 240,000 Full Width at Half Maximum. MS was tuned according to the manufacture recommendations. Relative abundance of the intact/degraded compounds was calculated by peak area of the extracted ion chromatogram: for Amoxicillin 366.1–366.12, and degraded-Amoxicillin 384.1–384.13 m/z, Penicillin-G 335.1–335.12, for degraded-Penicillin-G 353.1–353.12, for (Figs. S13 and S14, respectively).
compound,measurement,setting,value
MEFVAKLFAFFKDLLGKFLGNN [α3-K9A],nitrocefin substrate degradation after two hours,[1],minimal degradation
CSCC[C@H](N)C(=O)N[C@@H](CCC(=O)O)C(=O)N[C@@H](Cc1ccccc1)C(=O)N[C@H](C(=O)N[C@@H](C)C(=O)N[C@@H](CCCCN)C(=O)N[C@@H](CC(C)C)C(=O)N[C@@H](Cc1ccccc1)C(=O)N[C@@H](CCCCN)C(=O)N[C@@H](Cc1ccccc1)C(=O)N[C@@H](Cc1ccccc1)C(=O)N[C@@H](CCCCN)C(=O)N[C@@H](CC(=O)O)C(=O)N[C@@H](CC(C)C)C(=O)N[C@@H](CC(C)C)C(=O)NCC(=O)N[C@@H](C)C(=O)N[C@@H](Cc1ccccc1)C(=O)N[C@@H](CC(C)C)C(=O)NCC(=O)N[C@@H](CC(N)=O)C(=O)N[C@@H](CC(N)=O)C(=O)O)C(C)C [α3-K17A],nitrocefin substrate degradation after two hours,[1],minimal degradation
CC1(C)S[C@@H]2[C@H](NC(=O)Cc3ccccc3)C(=O)N2[C@H]1C(=O)O [Penicillin G],"Degraded Penicillin G (PSMa3) (percentage of LC peaks, hydrolyzed product)","PSMα3 fibrils; PSMα3 fibrils 308 µM, 0h",14.1576%
same,"Penicillin G (PSMa3) (percentage of LC peaks, parent compound)","PSMα3 fibrils; PSMα3 fibrils 308 µM, 0h",85.8424%
same,"Degraded Penicillin G (PSMa3) (percentage of LC peaks, hydrolyzed product)","PSMα3 fibrils; PSMα3 fibrils 308 µM, 2h",11.4487%
same,"Penicillin G (PSMa3) (percentage of LC peaks, parent compound)","PSMα3 fibrils; PSMα3 fibrils 308 µM, 2h",88.5513%
same,"Degraded Penicillin G (PSMa3) (percentage of LC peaks, hydrolyzed product)","PSMα3 fibrils; PSMα3 fibrils 308 µM, 4h",13.5281%
same,"Penicillin G (PSMa3) (percentage of LC peaks, parent compound)","PSMα3 fibrils; PSMα3 fibrils 308 µM, 4h",86.4719%
same,"Degraded Penicillin G (PSMa3) (percentage of LC peaks, hydrolyzed product)","PSMα3 fibrils; PSMα3 fibrils 308 µM, 8h",13.7177%
same,"Penicillin G (PSMa3) (percentage of LC peaks, parent compound)","PSMα3 fibrils; PSMα3 fibrils 308 µM, 8h",86.2823%
same,"Degraded Penicillin G (PSMa3) (percentage of LC peaks, hydrolyzed product)","PSMα3 fibrils; PSMα3 fibrils 308 µM, 12h",18.21%
same,"Penicillin G (PSMa3) (percentage of LC peaks, parent compound)","PSMα3 fibrils; PSMα3 fibrils 308 µM, 12h",81.79%
same,"Degraded Penicillin G (PSMa3) (percentage of LC peaks, hydrolyzed product)","PSMα3 fibrils; PSMα3 fibrils 308 µM, 24h",37.9475%
same,"Penicillin G (PSMa3) (percentage of LC peaks, parent compound)","PSMα3 fibrils; PSMα3 fibrils 308 µM, 24h",62.0525%
same,"Degraded Penicillin G (PSMa3) (percentage of LC peaks, hydrolyzed product)","PSMα3 fibrils; PSMα3 fibrils 308 µM, 48h",86.3947%
same,"Penicillin G (PSMa3) (percentage of LC peaks, parent compound)","PSMα3 fibrils; PSMα3 fibrils 308 µM, 48h",13.6053%
same,"Degraded Penicillin G (PSMa3) (percentage of LC peaks, hydrolyzed product)","PSMα3 fibrils; PSMα3 fibrils 308 µM, 60h",96.085%
same,"Penicillin G (PSMa3) (percentage of LC peaks, parent compound)","PSMα3 fibrils; PSMα3 fibrils 308 µM, 60h",3.915%
same,"Degraded Penicillin G (PSMa3) (percentage of LC peaks, hydrolyzed product)","PSMα3 fibrils; PSMα3 fibrils 308 µM, 72h",99.5055%
same,"Penicillin G (PSMa3) (percentage of LC peaks, parent compound)","PSMα3 fibrils; PSMα3 fibrils 308 µM, 72h",0.4945%
same,hydrolysis by PSMα3 fibrils versus spontaneous degradation,"PSMα3 fibrils; antibiotic 40 µM, PSMα3 fibrils 308 µM, Hepes 50 mM pH 7.4, LC-MS (Fig. 6)",significantly higher extent compared to the spontaneous degradation
same,"Degraded Penicillin G (percentage of LC peaks, hydrolyzed product)",PSMα3 fibrils; 0h,11.7847%
same,"Penicillin G (percentage of LC peaks, parent compound)",PSMα3 fibrils; 0h,88.2153%
same,"Degraded Penicillin G (percentage of LC peaks, hydrolyzed product)",PSMα3 fibrils; 2h,11.7612%
same,"Penicillin G (percentage of LC peaks, parent compound)",PSMα3 fibrils; 2h,88.2388%
same,"Degraded Penicillin G (percentage of LC peaks, hydrolyzed product)",PSMα3 fibrils; 4h,11.6984%
same,"Penicillin G (percentage of LC peaks, parent compound)",PSMα3 fibrils; 4h,88.3016%
same,"Degraded Penicillin G (percentage of LC peaks, hydrolyzed product)",PSMα3 fibrils; 8h,11.6907%
same,"Penicillin G (percentage of LC peaks, parent compound)",PSMα3 fibrils; 8h,88.3093%
same,"Degraded Penicillin G (percentage of LC peaks, hydrolyzed product)",PSMα3 fibrils; 12h,15.4738%
same,"Penicillin G (percentage of LC peaks, parent compound)",PSMα3 fibrils; 12h,84.5262%
same,"Degraded Penicillin G (percentage of LC peaks, hydrolyzed product)",PSMα3 fibrils; 24h,23.4015%
same,"Penicillin G (percentage of LC peaks, parent compound)",PSMα3 fibrils; 24h,76.5985%
same,"Degraded Penicillin G (percentage of LC peaks, hydrolyzed product)",PSMα3 fibrils; 48h,37.4339%
same,"Penicillin G (percentage of LC peaks, parent compound)",PSMα3 fibrils; 48h,62.5661%
same,"Degraded Penicillin G (percentage of LC peaks, hydrolyzed product)",PSMα3 fibrils; 60h,42.5642%
same,"Penicillin G (percentage of LC peaks, parent compound)",PSMα3 fibrils; 60h,57.4358%
same,"Degraded Penicillin G (percentage of LC peaks, hydrolyzed product)",PSMα3 fibrils; 72h,42.8604%
same,"Penicillin G (percentage of LC peaks, parent compound)",PSMα3 fibrils; 72h,57.1396%
MEFVAALFKFFKDLLGKFLGNN [α3-K6A],nitrocefin substrate degradation after two hours,[1],minimal degradation
MEFVAKLFKPFKDLLGKFLGNN [α3-F10P],initial rate of nitrocefin degradation reaction (V0),"[1]; initial nitrocefin 107 µM, Hepes 50 mM pH 7.4, 20 °C, first 15 min (Fig. 3f)",lower than 15 µM/h
MEFVAKLFKFFADLLGKFLGNN [α3-K12A],nitrocefin substrate degradation after two hours,[1],70%
CSCC[C@H](NC(C)=O)C(=O)N[C@@H](CCC(=O)O)C(=O)N[C@@H](Cc1ccccc1)C(=O)N[C@H](C(=O)N[C@@H](C)C(=O)N[C@@H](CCCCN)C(=O)N[C@@H](CC(C)C)C(=O)N[C@@H](Cc1ccccc1)C(=O)N[C@@H](CCCCN)C(=O)N[C@@H](Cc1ccccc1)C(=O)N[C@@H](Cc1ccccc1)C(=O)N[C@@H](CCCCN)C(=O)N[C@@H](CC(=O)O)C(=O)N[C@@H](CC(C)C)C(=O)N[C@@H](CC(C)C)C(=O)NCC(=O)N[C@@H](CCCCN)C(=O)N[C@@H](Cc1ccccc1)C(=O)N[C@@H](CC(C)C)C(=O)NCC(=O)N[C@@H](CC(N)=O)C(=O)N[C@@H](CC(N)=O)C(=O)O)C(C)C [α3-N.Ac.],nitrocefin substrate degradation after two hours,[1],minimal degradation
